Test: xn = mol fraction of the nth substance listed
Conditions: Liquid, Vibrating tube method

CCCCCCCCCC [decane] + CCO
Conditions	mass density [kg/m3]
362.64 K, 11000 kPa, x2 = 0.1011	686.5
362.64 K, 11000 kPa, x2 = 0.4963	692.75
362.64 K, 11000 kPa, x2 = 0.9014	719.95
362.64 K, 12000 kPa, x2 = 0.1011	687.56
362.64 K, 12000 kPa, x2 = 0.4963	693.89
362.64 K, 12000 kPa, x2 = 0.9014	721.13
362.64 K, 13000 kPa, x2 = 0.1011	688.62
362.64 K, 13000 kPa, x2 = 0.4963	694.99
362.64 K, 13000 kPa, x2 = 0.9014	722.28
362.64 K, 14000 kPa, x2 = 0.1011	689.68
362.64 K, 14000 kPa, x2 = 0.4963	696.14
362.64 K, 14000 kPa, x2 = 0.9014	723.43
362.64 K, 15000 kPa, x2 = 0.1011	690.66
362.64 K, 15000 kPa, x2 = 0.4963	697.17
362.64 K, 15000 kPa, x2 = 0.9014	724.55
362.64 K, 16000 kPa, x2 = 0.1011	691.66
362.64 K, 16000 kPa, x2 = 0.4963	698.23
362.64 K, 16000 kPa, x2 = 0.9014	725.65
362.64 K, 17000 kPa, x2 = 0.1011	692.65
362.64 K, 17000 kPa, x2 = 0.4963	699.27
362.64 K, 17000 kPa, x2 = 0.9014	726.75
362.64 K, 18000 kPa, x2 = 0.1011	693.62
362.64 K, 18000 kPa, x2 = 0.4963	700.3
362.64 K, 18000 kPa, x2 = 0.9014	727.82
362.64 K, 19000 kPa, x2 = 0.1011	694.56
362.64 K, 19000 kPa, x2 = 0.4963	701.3
362.64 K, 19000 kPa, x2 = 0.9014	728.87
362.64 K, 20000 kPa, x2 = 0.1011	695.5
362.64 K, 20000 kPa, x2 = 0.4963	702.3
362.64 K, 20000 kPa, x2 = 0.9014	729.9
362.65 K, 1000 kPa, x2 = 0.0937	675.13
362.65 K, 2000 kPa, x2 = 0.0937	676.3
362.65 K, 3000 kPa, x2 = 0.0937	677.46
362.65 K, 4000 kPa, x2 = 0.0937	678.6
362.65 K, 5000 kPa, x2 = 0.0937	679.76
362.65 K, 6000 kPa, x2 = 0.0937	680.91
362.65 K, 7000 kPa, x2 = 0.0937	682.04
362.65 K, 8000 kPa, x2 = 0.0937	683.16
362.65 K, 9000 kPa, x2 = 0.0937	684.25
362.65 K, 10000 kPa, x2 = 0.0937	685.35
362.65 K, 11000 kPa, x2 = 0.0937	686.41
362.65 K, 12000 kPa, x2 = 0.0937	687.48
362.65 K, 13000 kPa, x2 = 0.0937	688.51
362.65 K, 14000 kPa, x2 = 0.0937	689.55
362.65 K, 15000 kPa, x2 = 0.0937	690.57
362.65 K, 16000 kPa, x2 = 0.0937	691.56
362.65 K, 17000 kPa, x2 = 0.0937	692.56
362.65 K, 18000 kPa, x2 = 0.0937	693.53
362.65 K, 19000 kPa, x2 = 0.0937	694.47
362.65 K, 20000 kPa, x2 = 0.0937	695.39
362.71 K, 1000 kPa, x2 = 0.7526	692.67
362.71 K, 2000 kPa, x2 = 0.7526	693.99
362.71 K, 3000 kPa, x2 = 0.7526	695.3
362.71 K, 4000 kPa, x2 = 0.7526	696.58
362.71 K, 5000 kPa, x2 = 0.7526	697.86
362.71 K, 6000 kPa, x2 = 0.7526	699.12
362.71 K, 7000 kPa, x2 = 0.7526	700.37
362.71 K, 8000 kPa, x2 = 0.7526	701.6
362.71 K, 9000 kPa, x2 = 0.7526	702.81
362.71 K, 10000 kPa, x2 = 0.7526	704.01
362.71 K, 11000 kPa, x2 = 0.7526	705.19
362.71 K, 12000 kPa, x2 = 0.7526	706.37
362.71 K, 13000 kPa, x2 = 0.7526	707.51
362.71 K, 14000 kPa, x2 = 0.7526	708.68
362.71 K, 15000 kPa, x2 = 0.7526	709.76
362.71 K, 16000 kPa, x2 = 0.7526	710.84
362.71 K, 17000 kPa, x2 = 0.7526	711.92
362.71 K, 18000 kPa, x2 = 0.7526	712.98
362.71 K, 19000 kPa, x2 = 0.7526	714.02
362.71 K, 20000 kPa, x2 = 0.7526	715.03
362.8 K, 1000 kPa, x2 = 0.2507	676.12
362.8 K, 2000 kPa, x2 = 0.2507	677.34
362.8 K, 3000 kPa, x2 = 0.2507	678.55
362.8 K, 4000 kPa, x2 = 0.2507	679.73
362.8 K, 5000 kPa, x2 = 0.2507	680.92
362.8 K, 6000 kPa, x2 = 0.2507	682.09
362.8 K, 7000 kPa, x2 = 0.2507	683.25
362.8 K, 8000 kPa, x2 = 0.2507	684.4
362.8 K, 9000 kPa, x2 = 0.2507	685.54
362.8 K, 10000 kPa, x2 = 0.2507	686.66
362.8 K, 11000 kPa, x2 = 0.2507	687.77
362.8 K, 12000 kPa, x2 = 0.2507	688.85
362.8 K, 13000 kPa, x2 = 0.2507	689.91
362.8 K, 14000 kPa, x2 = 0.2507	691.02
362.8 K, 15000 kPa, x2 = 0.2507	692.02
362.8 K, 16000 kPa, x2 = 0.2507	693.05
362.8 K, 17000 kPa, x2 = 0.2507	694.06
362.8 K, 18000 kPa, x2 = 0.2507	695.04
362.8 K, 19000 kPa, x2 = 0.2507	696.01
362.8 K, 20000 kPa, x2 = 0.2507	696.96

From the NIST ThermoML archive (doi:10.1016/j.jct.2012.06.012)
